Measured values from PMC3666588 (Journal of medicinal chemistry, 2013).
“Also recorded” adds a separate entry of the source. Like-named read-outs stand apart in the source and are kept apart here.

Legend:
ERα LBD and SRC-1 = molecular target: T1, ERα LBD and SRC-1 (Homo sapiens, UniProt P03372); test: Mammalian two-hybrid assay, ERα LBD - SRC-1 interaction in HeLa cells; assay type: cell-based; conditions: 100 nM ligand, GAL-SRC-1 + VP16-ERα-LBD
T1 sequence (P03372 311-547 limits assumed): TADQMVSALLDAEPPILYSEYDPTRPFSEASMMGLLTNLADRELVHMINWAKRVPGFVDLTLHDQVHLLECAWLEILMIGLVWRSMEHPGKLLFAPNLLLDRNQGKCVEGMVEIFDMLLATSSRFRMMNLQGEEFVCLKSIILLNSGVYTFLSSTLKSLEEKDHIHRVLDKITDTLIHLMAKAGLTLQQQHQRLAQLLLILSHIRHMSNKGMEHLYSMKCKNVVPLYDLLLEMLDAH

ERα [1] = molecular target: T2, ERα (Homo sapiens, UniProt P03372); test: ERα trans-activation luciferase reporter assay in HepG2 cells
T2 sequence (P03372 1-595): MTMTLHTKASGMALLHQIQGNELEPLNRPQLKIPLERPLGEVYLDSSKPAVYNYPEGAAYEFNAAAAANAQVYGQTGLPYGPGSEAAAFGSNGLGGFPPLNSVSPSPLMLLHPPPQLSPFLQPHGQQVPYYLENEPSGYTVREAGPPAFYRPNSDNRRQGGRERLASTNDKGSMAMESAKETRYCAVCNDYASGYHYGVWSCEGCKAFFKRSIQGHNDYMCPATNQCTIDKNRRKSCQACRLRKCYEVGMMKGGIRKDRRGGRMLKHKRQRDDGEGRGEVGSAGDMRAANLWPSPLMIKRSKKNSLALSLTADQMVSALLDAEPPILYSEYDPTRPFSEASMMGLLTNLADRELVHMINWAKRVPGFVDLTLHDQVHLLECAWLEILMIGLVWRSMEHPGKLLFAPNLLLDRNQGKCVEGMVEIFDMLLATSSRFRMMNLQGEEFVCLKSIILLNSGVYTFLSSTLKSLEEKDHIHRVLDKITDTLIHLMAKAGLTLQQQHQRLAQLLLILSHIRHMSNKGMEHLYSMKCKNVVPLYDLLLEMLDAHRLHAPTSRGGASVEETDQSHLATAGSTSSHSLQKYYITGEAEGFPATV

MDA-MB-231 cells = test: In vitro cell proliferation assay; assay type: cell-based, human; conditions: 0-1000 nM, 6 days
ERα [2] = molecular target: T2, ERα; test: ERα radioligand; assay type: binding; conditions: for RBA for human ERs: text summary for human ERs (ERα and ERβ); for ERα RBA: RBA = IC50 for E2 / IC50 for the test compound
MCF-7 cells = test: In vitro cell proliferation assay; assay type: cell-based, human; conditions: 0-1000 nM, 6 days, 10% FBS, no additional estrogen
ERα [3] = molecular target: T2, ERα; test: ERα trans-activation luciferase reporter assay in MCF-7 cells; conditions: 100 nM derivative, compared with 1 nM E2; ERE-Elb-Luc reporter
ERα [4] = molecular target: T2, ERα; test: ERα trans-activation luciferase reporter assay in HeLa cells; conditions: for ERα agonist activity in HeLa or MCF-7 cells: 100 nM derivative, pCR3.1-ERα + ERE-Elb-Luc; for antagonism of E2-stimulated luciferase expression in HeLa cells: in presence of 1 nM E2
recombinant human ERβ = recombinant human ERβ (Homo sapiens, UniProt Q92731); test: ERβ radioligand; assay type: binding; conditions: RBA = IC50 for E2 / IC50 for the test compound
[5] = test system: ERα LBD and CBP CH3 domain; conditions: prior report ref 16; cited from earlier work

Sequence of recombinant human ERβ (Q92731 whole entry, the tested form may be a part): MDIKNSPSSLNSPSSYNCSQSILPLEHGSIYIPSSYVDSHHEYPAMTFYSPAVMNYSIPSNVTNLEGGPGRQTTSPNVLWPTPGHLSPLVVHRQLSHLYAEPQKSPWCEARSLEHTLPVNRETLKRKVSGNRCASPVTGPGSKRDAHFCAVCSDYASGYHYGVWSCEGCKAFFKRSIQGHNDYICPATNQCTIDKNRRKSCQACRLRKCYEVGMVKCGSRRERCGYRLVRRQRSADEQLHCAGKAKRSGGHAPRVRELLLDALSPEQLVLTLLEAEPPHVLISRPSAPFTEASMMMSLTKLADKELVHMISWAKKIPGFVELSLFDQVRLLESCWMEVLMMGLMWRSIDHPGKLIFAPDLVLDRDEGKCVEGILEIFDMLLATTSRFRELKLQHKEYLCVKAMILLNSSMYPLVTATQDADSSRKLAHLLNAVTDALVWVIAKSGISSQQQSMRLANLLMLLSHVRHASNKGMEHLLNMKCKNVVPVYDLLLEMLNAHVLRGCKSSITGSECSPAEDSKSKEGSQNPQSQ

Structure (SMILES) | promotion of ERα - SRC-1 coactivator interaction (ERα LBD and SRC-1) | agonist activity in HepG2 cells relative to E2 (ERα [1]) | effect on growth of ER-negative MDA-MB-231 cells (MDA-MB-231 cells) | RBA for human ERs (ERα [2]) | effect on growth of ER-positive MCF-7 cells (MCF-7 cells) | ERα agonist activity (transcription of target gene) in MCF-7 cells (ERα [3]) | ERα agonist activity in HeLa or MCF-7 cells (ERα [4]) | antagonism of E2-stimulated luciferase expression in HeLa cells (ERα [4]) | ERα RBA (ERα [2]) | ERβ RBA (recombinant human ERβ) | agonist activity in HepG2 cells relative to E2 (ERα [1]; 100 nM derivative, normalized to 1 nM E2, pCR3.1-ERα + ERE-Elb-Luc) | RBA for the human ERα (ERα [2]; stated in docking discussion) | promotion of ERα interaction with CBP coactivator [5]
C[C@]12CC[C@@H]3c4ccc(O)cc4C[C@@H](CCCCC#Cc4ccc(-c5ccno5)cc4)[C@H]3[C@@H]1CC[C@@H]2O [J3, 3,17β-bis(hydroxy)-7α-[6-(4-Isoxazol-5-yl-phenyl)-hex-5-ynyl]-estra-1,3,5(10)-trien] | did not induce significant SRC-1 binding | approximately 50 % of the agonist activity of E2 | no appreciable effect; also recorded: did not show an appreciable effect | approximately 1 % of E2 | concentration-dependent inhibition | very poor agonists | poor agonists | less effective inhibitors |  |  |  |  | 
CCOC(=O)C(Cc1ccc(C#CCCCC[C@@H]2Cc3cc(O)ccc3[C@H]3CC[C@]4(C)[C@@H](O)CC[C@H]4[C@H]23)cc1)C(=O)OCC [J8, 2-{4-[6-((7α,17β)-3,17-dihydroxyestra-1,3,5(10)-trien-7-yl)-hex-1-ynyl]-benzyl}-malonic acid diethyl ester] | effectively promoted the interaction |  |  |  | either no effect or a stimulatory effect; also recorded: did not show an appreciable effect | markedly weaker effect |  |  | 4.7% | 5.8% |  |  | 
CC(C)(C)OC(=O)N1CCN(c2ccc(C#CCCCC[C@@H]3Cc4cc(O)ccc4[C@H]4CC[C@]5(C)[C@@H](O)CC[C@H]5[C@H]34)cc2)CC1 [J4, 4-{4-[6-((7α,17β)-3,17-dihydroxyestra-1,3,5(10)-trien-7-yl)-hex-1-ynyl]-phenyl}-piperazine-1-carboxylic acid tert-butyl ester] | did not induce significant SRC-1 binding |  | no appreciable effect; also recorded: did not show an appreciable effect | approximately 1 % of E2 | concentration-dependent inhibition | very poor agonists |  | less effective inhibitors | 1.1% | 2.0% |  |  | 
C[C@]12CC[C@@H]3c4ccc(O)cc4C[C@@H](CCCCc4cn(CC5COc6ccccc6O5)nn4)[C@H]3[C@@H]1CC[C@@H]2O (stereo partly drawn) [J9, 3,17β-bis(hydroxy)-7α-{4-[1-(2,3-Dihydro-1,4-benzodioxin-2-ylmethyl)-1H-1,2,3-triazol-4-yl]-butyl}-estra-1,3,5(10)-trien] | did not induce significant SRC-1 binding |  |  | > 20 % of E2 | concentration-dependent inhibition | no agonist activity | poor agonists | strongest antagonists | 24.6% | 21.1% | approximately 50 % of the agonist activity of E2 | 24.6 % of E2 | 
C[C@]12CC[C@@H]3c4ccc(O)cc4C[C@@H](CCCCCCCCC[S+]([O-])CCCC(F)(F)C(F)(F)F)[C@H]3[C@@H]1CC[C@@H]2O (stereo partly shown) [ICI-182,780, fulvestrant] |  |  |  |  |  |  |  |  |  |  |  |  | strongly promote ERα interaction with the CBP coactivator
C[C@]12CC[C@@H]3c4ccc(O)cc4C[C@@H](CCCCc4cn(-c5cc6ccc(O)cc6oc5=O)nn4)[C@H]3[C@@H]1CC[C@@H]2O [J7, 3-{4-[4-((7α,17β)-3,17-dihydroxyestra-1,3,5(10)-trien-7-yl)-butyl]-1,2,3-triazol-1-yl}-7-hydroxy-1-benzopyran-2-one] | did not induce significant SRC-1 binding |  |  |  | concentration-dependent inhibition | no agonist activity |  | strongest antagonists |  |  |  |  | 
C[C@]12CC[C@@H]3c4ccc(O)cc4C[C@@H](CCCCC#Cc4ccc(-n5cccc5)cc4)[C@H]3[C@@H]1CC[C@@H]2O [J1, 3,17β-bis(hydroxy)-7α-[6-(4-pyrrol-1-yl-phenyl)-hex-5-ynyl]-estra-1,3,5(10)-trien] | effectively promoted the interaction |  |  | > 20 % of E2 | either no effect or a stimulatory effect; also recorded: did not show an appreciable effect |  |  |  | 21.2% |  |  |  | 
C[C@]12CC[C@@H]3c4ccc(O)cc4C[C@@H](CCCCC#Cc4ccc5ccccc5c4)[C@H]3[C@@H]1CC[C@@H]2O [J2, 3,17β-bis(hydroxy)-7α-(6-naphthalen-2-yl-hex-5-ynyl)-estra-1,3,5(10)-trien] | effectively promoted the interaction |  |  |  | either no effect or a stimulatory effect; also recorded: did not show an appreciable effect |  |  |  | 3.4% |  |  |  | 
CCOC(=O)CC(=O)c1ccc(C#CCCCC[C@@H]2Cc3cc(O)ccc3[C@H]3CC[C@]4(C)[C@@H](O)CC[C@H]4[C@H]23)cc1 [J5, 3-{4-[6-((7α,17β)-3,17-dihydroxyestra-1,3,5(10)-trien-7-yl)-hex-1-ynyl]-phenyl}-3-oxo-propionic acid ethyl ester] | effectively promoted the interaction |  |  |  | either no effect or a stimulatory effect; also recorded: did not show an appreciable effect |  |  |  | 6.2% | 4.7% |  |  | 
C[C@]12CC[C@@H]3c4ccc(O)cc4C[C@@H](CCCCC#Cc4ccc(CN5CCCCC5)cc4)[C@H]3[C@@H]1CC[C@@H]2O [J6, 3,17β-bis(hydroxy)-7α-[6-(4-piperidin-1-ylmethyl-phenyl)-hex-5-ynyl]-estra-1,3,5(10)-trien] | effectively promoted the interaction |  |  | approximately 1 % of E2 | either no effect or a stimulatory effect; also recorded: did not show an appreciable effect | markedly weaker effect |  |  | 0.9% |  |  |  | 
